Article PMC10689823, “Discovery of a Drug-like, Natural Product-Inspired DCAF11 Ligand Chemotype” (Nature Communications, 2023)

Target: BRD4S-TagBFP reporter (Homo sapiens, UniProt O60885)
Experiment: FACS-based CRISPR/Cas9 BRD4 protein stability screen
Method: The virus containing supernatant was cleared of cellular debris by filtration through a 0.45-µm PES filter and used to transduce KBM7 BRD4-BFP reporter cells harboring a doxycycline inducible Cas9 allele at a multiplicity of infection (MOI) of 0.05 and 1,000-fold library representation. Library-transduced cells were selected with G418 (1 mg ml^−1, Gibco) for 14 days, expanded and Cas9 expression was induced with DOX (0.4 µg ml^−1, PanReac AppliChem).
Cells were washed with and stored in FACS buffer (PBS containing 5% FBS and 1 mM EDTA) at 4 °C overnight. The next day, cells were strained trough a 35 µm nylon mesh and sorted on a BD FACSAria™ Fusion (BD Biosciences) using a 85 µm nozzle. Aggregates, dead (ZombieNIR positive), Cas9-negative (GFP) and sgRNA library-negative (Thy1.1-APC) cells were excluded, and the remaining cells were sorted based on their BRD4-BFP and mCherry levels into BRD4^HIGH (10% of cells), BRD4^MID (30%) and BRD4^LOW (10%) fractions. For each sample, cells corresponding to at least 2,000-fold library representation were sorted per replicate.
Next-generation sequencing (NGS) libraries of sorted cell fractions were prepared as previously described[25]. In brief, genomic DNA was isolated by cell lysis (10 mM Tris-HCl, 150 mM NaCl, 10 mM EDTA, 0.1% SDS), proteinase K treatment (New England Biolabs) and DNAse-free RNAse digest (Thermo Fisher Scientific), followed by two rounds of phenol extraction and 2-propanol precipitation. Isolated genomic DNA was subjected to several freeze–thaw cycles before nested polymerase chain reaction (PCR) amplification of the sgRNA cassette.
Barcoded NGS libraries for each sorted population were generated using a two-step PCR protocol using AmpliTaq Gold (Invitrogen). The resulting PCR products were purified using Mag-Bind® TotalPure NGS beads (Omega Bio-tek) and amplified in a second PCR introducing the standard Illumina adapters. The final Illumina libraries were bead-purified, pooled and sequenced on a HiSeq 3500 platform (Illumina).
Screen analysis was performed as previously described[25]. Briefly, sequencing reads were quantified using the crispr-process-nf Nextflow workflow, available at https://github.com/ZuberLab/crispr-process-nf/tree/566f6d46bbcc2a3f49f51bbc96b9820f408ec4a3. For statistical analysis, we used the crispr-mageck-nf Nextflow workflow, available at https://github.com/ZuberLab/crispr-mageck-nf/tree/c75a90f670698bfa78bfd8be786d6e5d6d4fc455. To calculate gene-level enrichment, the sorted populations (BRD4^HIGH or BRD4^LOW) were compared to the BRD4^MID populations in MAGeCK (0.5.9)[46], using median normalized read counts.

SMILES: Cc1sc2c(c1C)C(c1ccc(Cl)cc1)=NC(CC(=O)NCCOCCOCCOCCOc1c(Br)cc(C=C3C(=O)Nc4ccc(Br)cc43)cc1Br)c1nnc(C)n1-2 (stereo not drawn) [Compound 10]
- Low_lfc (Gene FBXL18, Mageck_Gene level): 0.15
- Low_logP (Gene FBXL18, Mageck_Gene level): 0.58
- High_lfc (Gene FBXL19, Mageck_Gene level): -0.07
- High_logP (Gene FBXL19, Mageck_Gene level): 0.17
- Low_lfc (Gene FBXL19, Mageck_Gene level): 0.26
- Low_logP (Gene FBXL19, Mageck_Gene level): 0.97
- High_lfc (Gene FBXL20, Mageck_Gene level): 0.09
- High_logP (Gene FBXL20, Mageck_Gene level): 0.36
- Low_lfc (Gene FBXL20, Mageck_Gene level): -0.03
- Low_logP (Gene FBXL20, Mageck_Gene level): 0.19
- High_lfc (Gene FBXL21, Mageck_Gene level): 0.06
- High_logP (Gene FBXL21, Mageck_Gene level): 0.36
- Low_lfc (Gene FBXL21, Mageck_Gene level): -0.13
- Low_logP (Gene FBXL21, Mageck_Gene level): 0.07
- High_lfc (Gene FBXL22, Mageck_Gene level): 0.4
- Low_lfc (Gene FBXL22, Mageck_Gene level): 0.39
- Low_logP (Gene FBXL22, Mageck_Gene level): 1.13
- High_lfc (Gene FBXO2, Mageck_Gene level): 0.07
- High_logP (Gene FBXO2, Mageck_Gene level): 0.12
- Low_lfc (Gene FBXO2, Mageck_Gene level): -0.12
- Low_logP (Gene FBXO2, Mageck_Gene level): 0.08
- High_lfc (Gene FBXO10, Mageck_Gene level): 0.07
- High_logP (Gene FBXO10, Mageck_Gene level): 0.21
- Low_lfc (Gene FBXO10, Mageck_Gene level): -0.41
- Low_logP (Gene FBXO10, Mageck_Gene level): 0.06
- High_lfc (Gene FBXO11, Mageck_Gene level): -0.62
- High_logP (Gene FBXO11, Mageck_Gene level): 0
- Low_lfc (Gene FBXO11, Mageck_Gene level): 0.03
- Low_logP (Gene FBXO11, Mageck_Gene level): 0.18
- High_lfc (Gene FBXO15, Mageck_Gene level): -0.25
- High_logP (Gene FBXO15, Mageck_Gene level): 0.04
- Low_lfc (Gene FBXO15, Mageck_Gene level): -0.28
- Low_logP (Gene FBXO15, Mageck_Gene level): 0.22
- High_lfc (Gene FBXO16, Mageck_Gene level): -0.06
- High_logP (Gene FBXO16, Mageck_Gene level): 0.3
- Low_lfc (Gene FBXO16, Mageck_Gene level): -0.09
- Low_logP (Gene FBXO16, Mageck_Gene level): 0.14
- High_lfc (Gene FBXO17, Mageck_Gene level): -0.2
- High_logP (Gene FBXO17, Mageck_Gene level): 0.06
- Low_lfc (Gene FBXO17, Mageck_Gene level): 0.03
- Low_logP (Gene FBXO17, Mageck_Gene level): 0.49
- High_lfc (Gene FBXO18, Mageck_Gene level): -0.14
- High_logP (Gene FBXO18, Mageck_Gene level): 0.12
- Low_lfc (Gene FBXO18, Mageck_Gene level): 0.16
- Low_logP (Gene FBXO18, Mageck_Gene level): 0.25
- High_lfc (Gene FBXO21, Mageck_Gene level): 0.22
- High_logP (Gene FBXO21, Mageck_Gene level): 0.42
- Low_lfc (Gene FBXO21, Mageck_Gene level): 0
- Low_logP (Gene FBXO21, Mageck_Gene level): 0.2
- High_lfc (Gene FBXO22, Mageck_Gene level): -0.12
- High_logP (Gene FBXO22, Mageck_Gene level): 0.02
- Low_lfc (Gene FBXO22, Mageck_Gene level): 0.34
- Low_logP (Gene FBXO22, Mageck_Gene level): 0.76
- High_lfc (Gene FBXO24, Mageck_Gene level): -0.07
- High_logP (Gene FBXO24, Mageck_Gene level): 0.15
- Low_lfc (Gene FBXO24, Mageck_Gene level): 0.03
- Low_logP (Gene FBXO24, Mageck_Gene level): 0.43
- High_lfc (Gene FBXO25, Mageck_Gene level): -0.22
- High_logP (Gene FBXO25, Mageck_Gene level): 0.18
- Low_lfc (Gene FBXO25, Mageck_Gene level): -0.04
- Low_logP (Gene FBXO25, Mageck_Gene level): 0.27
- High_lfc (Gene FBXO27, Mageck_Gene level): -0.12
- High_logP (Gene FBXO27, Mageck_Gene level): 0.16
- Low_lfc (Gene FBXO27, Mageck_Gene level): 0.09
- Low_logP (Gene FBXO27, Mageck_Gene level): 0.72
- High_lfc (Gene FBXO28, Mageck_Gene level): 0.16
- High_logP (Gene FBXO28, Mageck_Gene level): 0.49
- Low_lfc (Gene FBXO28, Mageck_Gene level): -0.29
- Low_logP (Gene FBXO28, Mageck_Gene level): 0.02
- High_lfc (Gene FBXO30, Mageck_Gene level): -0.1
- High_logP (Gene FBXO30, Mageck_Gene level): 0.16
- Low_lfc (Gene FBXO30, Mageck_Gene level): 0.12
- Low_logP (Gene FBXO30, Mageck_Gene level): 0.1
- High_lfc (Gene FBXO31, Mageck_Gene level): 0.04
- High_logP (Gene FBXO31, Mageck_Gene level): 0.36
- Low_lfc (Gene FBXO31, Mageck_Gene level): -0.01
- Low_logP (Gene FBXO31, Mageck_Gene level): 0.26
- High_lfc (Gene FBXO32, Mageck_Gene level): 0.06
- High_logP (Gene FBXO32, Mageck_Gene level): 0.08
- Low_lfc (Gene FBXO32, Mageck_Gene level): 0.38
- Low_logP (Gene FBXO32, Mageck_Gene level): 0.68
- High_lfc (Gene FBXO33, Mageck_Gene level): -0.54
- High_logP (Gene FBXO33, Mageck_Gene level): 0
- Low_lfc (Gene FBXO33, Mageck_Gene level): -0.07
- Low_logP (Gene FBXO33, Mageck_Gene level): 0.18
- High_lfc (Gene FBXO34, Mageck_Gene level): 0.15
- High_logP (Gene FBXO34, Mageck_Gene level): 0.29
- Low_lfc (Gene FBXO34, Mageck_Gene level): -0.13
- Low_logP (Gene FBXO34, Mageck_Gene level): 0.33
- High_lfc (Gene FBXO36, Mageck_Gene level): -0.26
- High_logP (Gene FBXO36, Mageck_Gene level): 0.21
- Low_lfc (Gene FBXO36, Mageck_Gene level): 0.2
- Low_logP (Gene FBXO36, Mageck_Gene level): 0.47
- High_lfc (Gene FBXO38, Mageck_Gene level): -0.33
- High_logP (Gene FBXO38, Mageck_Gene level): 0.02
- Low_lfc (Gene FBXO38, Mageck_Gene level): 0.01
- Low_logP (Gene FBXO38, Mageck_Gene level): 0.38
- High_lfc (Gene FBXO39, Mageck_Gene level): 0.06
- High_logP (Gene FBXO39, Mageck_Gene level): 0.22
- Low_lfc (Gene FBXO39, Mageck_Gene level): 0.01
- Low_logP (Gene FBXO39, Mageck_Gene level): 0.18
- CRL substrate receptor scoring as top hit (gene required for BRD4 degradation) (KBM7 BRD4-BFP reporter cells, 9 0.5 µM, 10 1 µM, dBET6 10 nM, 6 hours): DCAF11
- High_lfc (gene FBXO3): 0.34
- High_logP (gene FBXO3): 0.33
- Low_lfc (gene FBXO3): -0.08
- Low_logP (gene FBXO3): 0.04
- High_lfc (gene FBXO4): 0.05
- High_logP (gene FBXO4): 0.31
- Low_lfc (gene FBXO4): -0.07
- Low_logP (gene FBXO4): 0.01
- High_lfc (gene FBXO5): 0.23
- High_logP (gene FBXO5): 0.83
- Low_lfc (gene FBXO5): -0.27
- Low_logP (gene FBXO5): 0.05
- High_lfc (gene FBXO6): -0.06
- High_logP (gene FBXO6): 0.34
- Low_lfc (gene FBXO6): -0.26
- Low_logP (gene FBXO6): 0.15
- High_lfc (gene FBXO7): -0.21
- High_logP (gene FBXO7): 0
- Low_lfc (gene FBXO7): -0.1
- Low_logP (gene FBXO7): 0.14
- High_lfc (gene FBXO8): -0.41
- High_logP (gene FBXO8): 0.01
- Low_lfc (gene FBXO8): -0.3
- Low_logP (gene FBXO8): 0.02
- High_lfc (gene FBXO9): -0.11
- High_logP (gene FBXO9): 0.02
- Low_lfc (gene FBXO9): -0.13
- Low_logP (gene FBXO9): 0.09
- High_lfc (gene FBXO40): -0.14
- High_logP (gene FBXO40): 0.09
- Low_lfc (gene FBXO40): -0.23
- Low_logP (gene FBXO40): 0.3
- High_lfc (gene FBXO41): 0.03
- High_logP (gene FBXO41): 0.17
- Low_lfc (gene FBXO41): -0.11
- Low_logP (gene FBXO41): 0.05
- High_lfc (gene FBXO42): 0.02
- High_logP (gene FBXO42): 0.05
- Low_lfc (gene FBXO42): 0.34
- Low_logP (gene FBXO42): 1.46
- High_lfc (gene FBXO43): -0.17
- High_logP (gene FBXO43): 0.11
- Low_lfc (gene FBXO43): -0.15
- Low_logP (gene FBXO43): 0.08
- High_lfc (gene FBXO44): -0.16
- High_logP (gene FBXO44): 0.39
- Low_lfc (gene FBXO44): -0.37
- Low_logP (gene FBXO44): 0.19
- High_lfc (gene FBXO45): -0.07
- High_logP (gene FBXO45): 0.11
- Low_lfc (gene FBXO45): -0.31
- Low_logP (gene FBXO45): 0.11
- High_lfc (gene FBXO46): -0.12
- High_logP (gene FBXO46): 0.12
- Low_lfc (gene FBXO46): 0.18
- Low_logP (gene FBXO46): 0.84
- High_lfc (gene FBXO47): 0.35
- High_logP (gene FBXO47): 0.59
- Low_lfc (gene FBXO47): 0.65
- Low_logP (gene FBXO47): 1.14
- High_lfc (gene FBXO48): -0.14
- High_logP (gene FBXO48): 0.09
- Low_lfc (gene FBXO48): -0.68
- Low_logP (gene FBXO48): 0.01
- High_lfc (gene FBXW2): -0.16
- High_logP (gene FBXW2): 0.05
- Low_lfc (gene FBXW2): -0.15
- Low_logP (gene FBXW2): 0.23
- High_lfc (gene FBXW4): -0.23
- High_logP (gene FBXW4): 0.02
- Low_lfc (gene FBXW4): 0.1
- Low_logP (gene FBXW4): 0.3
- High_lfc (gene FBXW5): -0.14
- High_logP (gene FBXW5): 0.29
- Low_lfc (gene FBXW5): 0.04
- Low_logP (gene FBXW5): 0.25
- High_lfc (gene FBXW7): 0.42
- High_logP (gene FBXW7): 1.76
- Low_lfc (gene FBXW7): 0.03
- Low_logP (gene FBXW7): 0.22
- High_lfc (gene FBXW8): -0.01
- High_logP (gene FBXW8): 0.23
- Low_lfc (gene FBXW8): 0.37
- Low_logP (gene FBXW8): 0.66
- High_logP (gene FBXW9): 0.71
- Low_logP (gene FBXW9): 1.01
- High_lfc (gene FBXW10): -0.01
- High_logP (gene FBXW10): 0.15
- Low_lfc (gene FBXW10): -0.13
- Low_logP (gene FBXW10): 0.01
- High_lfc (gene FBXW11): -0.15
- High_logP (gene FBXW11): 0.05
- Low_lfc (gene FBXW11): -0.16
- Low_logP (gene FBXW11): 0.14
- High_lfc (gene FBXW12): -0.01
- High_logP (gene FBXW12): 0.11
- Low_lfc (gene FBXW12): 0.06
- Low_logP (gene FBXW12): 0.36
- High_logP (gene FEM1A): 0.33
